Assay results: PMC10404669, “Vanillyl alcohol oxidase from Diplodia corticola: Residues Ala420 and Glu466 allow for efficient catalysis of syringyl derivatives” (The Journal of Biological Chemistry, 2023)

Molecular target: T1, DcVAO (vanillyl alcohol oxidase) (Diplodia corticola, UniProt A0A1J9QSC2)
T1 construct: gene BKCO1_4900020
Assay: specific activity of purified enzyme, xylenol orange H2O2 assay
Type: biochemical

T1 sequence (A0A1J9QSC2 entry or part of it): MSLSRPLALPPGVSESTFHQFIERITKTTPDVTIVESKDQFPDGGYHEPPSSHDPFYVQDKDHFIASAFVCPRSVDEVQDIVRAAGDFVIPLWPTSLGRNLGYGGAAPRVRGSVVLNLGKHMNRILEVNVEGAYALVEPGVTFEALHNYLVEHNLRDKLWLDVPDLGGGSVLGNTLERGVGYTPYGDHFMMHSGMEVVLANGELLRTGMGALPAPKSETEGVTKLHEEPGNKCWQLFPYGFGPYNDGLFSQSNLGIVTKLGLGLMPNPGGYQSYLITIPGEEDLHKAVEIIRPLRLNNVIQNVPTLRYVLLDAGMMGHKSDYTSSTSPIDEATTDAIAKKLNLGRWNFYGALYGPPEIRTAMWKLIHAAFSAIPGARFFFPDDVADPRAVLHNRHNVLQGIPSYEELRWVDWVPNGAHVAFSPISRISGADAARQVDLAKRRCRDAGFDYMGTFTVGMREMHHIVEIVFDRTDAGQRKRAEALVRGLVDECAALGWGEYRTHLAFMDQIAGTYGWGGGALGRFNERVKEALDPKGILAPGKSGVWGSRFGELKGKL

## COc1cc(CO)cc(OC)c1O [compound 6, 4-(hydroxymethyl)-2,6-dimethoxyphenol]
  specific activity of purified enzyme, xylenol orange H2O2 assay: 6.3 ± 0.5 U mg^−1
